Laboratory results reported in paper PMC11820915, “Identification of HIV-1 Reverse Transcriptase-Associated Ribonuclease H Inhibitors Based on 2-Hydroxy-1,4-naphthoquinone Mannich Bases” (Molecules, 2025).
“And” between values parts separate entries of the source, which are not always exact repeats. Identical values can stand only once. Like-named read-outs stand apart in the source and are kept apart here.

Columns and labels:
[1] = target: T1, HIV-1 RT-associated RNase H (Human immunodeficiency virus type 1 group M subtype B, UniProt P03366); assay: HIV-1 RT-associated RNase H inhibition assay; type: biochemical; set-up: 50 nM of HIV-1 RT; conditions: for IC50: 50 nM HIV-1 RT, 15 min at 37 °C, triplicate
Experimental: HIV-1 RT-associated RNase H inhibition assays were carried out in a 384 multiwell format, in 30 µL reaction volume containing 50 mM Tris–HCl buffer pH 7.8, 6 mM MgCl2, 1 mM dithiothreitol (DTT), 80 mM KCl, 0.25 µM hybrid RNA/DNA 5’-[…]-Fluorescin-3’ 5’-Dabcyl-[…]-3’ increasing concentrations of inhibitor, whose dilutions were made in DMSO, and 50 nM of HIV-1 RT. The reaction mixture was incubated for 15 min at 37 °C and products were measured with a multilabel counter plate reader VictorNivo5 (PerkinElmer, Waltham, MA, USA) equipped with filters for 490/528 nm. IC50, the concentration able to inhibit 50% of enzymatic activity, was calculated by non-linear regression curve fit using Prisme v9.0. All experiments were conducted in triplicate.

HIV-1 [2] = type: cell-based; conditions: for Antiviral effect, reduction of GFP fluorescence expression (in words): MT4 cells, FACS
HIV-1 [3] = assay: HIV-1 infectivity in HelaP4 cells (CPRG assay); type: cell-based; conditions: for Reduction of HIV-1 infectivity: at highest non-toxic concentration, 48 h
SARS-CoV-2 = assay: microbe, parasite or virus in culture; type: cell-based; conditions: for EC50: read-out: EC50 for viral replication inhibition; for Inhibitory activity against SARS-CoV-2 replication (in words): with CP-100356
in vitro = conditions: African green monkey
HelaP4 cells = assay: Toxicity to HelaP4 cells (MTT assay); type: cell-based
Experimental: HelaP4 cells (10^4 cells/well) were infected with viruses (7.5 ng p24) in the presence of increasing concentration of compounds. Cells were incubated for 48 h before analysis. β-Galactosidase is under the control of the HIV-1 LTR. Infectivity is correlated with the number of infected cells. Cells were lysed for 10 min at 37 °C using 80 µL of lysis buffer (Na2HPO4 60 mM, NaH2PO4 60 mM, KCl 10 mM, MgSO4 10 mM, EDTA 25 mM, and NP-40 0.125%). After lysis, 170 µL of CPRG buffer (phosphate buffer 100 mM, pH 7.4, MgCl2 100 mM, and CPRG 20 mM) was added to each well. The plates were incubated at 37 °C until the color changed to dark red. Finally, a plate reader was used to read the absorbance at 572 nm. The MTT assay varies based on NAD(P)H-dependent cellular oxidoreductase enzymes of viable cells reducing the yellow tetrazolium salt MTT (3-(4,5-dimethylthiazol2-yl)-2,5-diphenyltetrazolium bromide). Spectrophotometric measurement can be used to quantify the insoluble purple formazan product that is produced by this reaction. An amount of 10 µL of MTT reagent (7.5 mg/mL in PBS, pH 7.4) was added to each well of the microtiter plate before incubating at 37 °C for 2 h. After 2 h of incubation, 100 µL of MTT lysis buffer (SDS 10%, HCl 0.01 N, pH 4.7) was added and the resulting optical density (OD) readings were measured at 572 nm.

[4] = target: T1, HIV-1 RT-associated RNase H; conditions: negative control; ref Min et al. [33]; cited from earlier work
VEROE6-EGFP cells = conditions: read-out: CC50 cytotoxic concentration, in the presence of 2 µM CP-100356
HIV-1 viral DNA = assay: qPCR of total HIV-1 viral DNA in infected MT4 cells; type: cell-based; conditions: 30 µM
Experimental: At the same time point, cells were harvested and washed with PBS before centrifugation to form pellets. DNA extraction was carried out using the QIAamp DNA Blood Mini Kit (Qiagen, Hilden, Germany). The procedure involved lysing the cells with AL buffer and Proteinase K to release the DNA. The lysate was then mixed with ethanol to facilitate DNA binding to a silica-based membrane in a spin column. The bound DNA was washed with buffers AW1 and AW2 to remove contaminants, and, finally, the DNA was eluted in 100 μL of water. DNA quantification was performed using quantitative polymerase chain reaction (qPCR) with the Roche LightCycler instrument. Accordingly, DNA quantification was conducted using real-time PCR (qPCR) on the same apparatus. This analysis utilized nucleic acid amounts corresponding to approximately 200,000 cells. The sequences of primers and probes employed for qPCR, aimed at absolute quantification of total HIV-1 viral DNA, have been previously described. The copy numbers of total HIV-1 DNA were ascertained from calibration curves derived from amplifying known quantities of cloned DNA with matching sequences.

MT4 cells = assay: Toxicity ZombieAqua test in MT4 cells; type: cell-based; conditions: 30 µM, Zombie Aqua
Experimental: MT4 cells (10^5 cells/well) were infected with viruses (100 ng/well) in the presence of increasing concentration of lawsone compounds and the positive control efavirenz (Sigma-Aldrich, St. Louis, MO, USA). After 48 h, cells from each well were washed with PBS and centrifuged (1500 rpm, 5 min). Then, cells were incubated with Zombie Aqua™ (Biolegend, San Diego, CA, USA) dye solution for 15 min in the dark at room temperature to stain dead cells. After that, the cell pellets were washed one more time with PBS before analysis by flow cytometer. Acquisition was performed on a FACS Celesta (BD Biosciences) and analysis was performed using FlowJo v10 software. Cells were first gated on the FSC-H and FSC-A parameters to exclude doublet cells. Then, living cells were selected according to the Zombie Acqua staining (dead cells are stained whereas living cells are not). Finally, the percentage of HIV-1infected cells was measured by analyzing the percentage of GFP+ cells among living cells.

[5] = read-out: IC50, HIV-1 RT-associated RNase H activity
[6] = Severe acute respiratory syndrome coronavirus 2, VEROE6-EGFP cells, in the presence of 2 µM CP-100356
[7] = IC50, HIV-1 RT-associated RNase H activity

`CCCCCCCCCCCCCCCCNC(C1=C(O)C(=O)c2ccccc2C1=O)c1cccc(Br)n1` (stereo not drawn) [Compound 1i, 3-[(Hexadecylamino)(6-bromo-2-pyridyl)methyl]-2-hydroxy-1,4-naphthoquinone] gave an IC50 [1, 5] of 78.6 ± 11.5 µM.
With `CCCCCCCCCCCCNC(C1=C(O)C(=O)c2ccccc2C1=O)c1cc(Cl)cc(Cl)c1O` (stereo not drawn) [Compound 2i] the “Antiviral effect, reduction of GFP fluorescence expression (in words)” value (from here on “Antiviral effect, reduction”) (HIV-1 [2]) was “no or weak antiviral effects”, the IC50 [1, 5] was 4.7 ± 1.6 µM and the “Reduction of HIV-1 infectivity” value (HIV-1 [3]) was 65%.
With `CCCCCCCCCCCCCCNC(C1=C(O)C(=O)c2ccccc2C1=O)c1ccccc1O` (stereo not drawn) [Compound 2e, 3-[(Tetradecylamino)(2-hydroxyphenyl)methyl]-2-hydroxy-1,4-naphthoquinone] the IC50 [1, 5] was 8.5 ± 1.6 µM and the “Antiviral activity against HIV-1 (in words)” value (HIV-1 [3]) was “no antiviral activity”.
In the case of `CCCCCCCCCCCCNC(C1=C(O)C(=O)c2ccccc2C1=O)c1cc(Br)cc(Br)c1O` (stereo not drawn) [Compound 2m], the IC50 [1, 5] is reported as 7.1 ± 1.1 µM and the “Antiviral activity against HIV-1 (in words)” value (HIV-1 [3]) is reported as “no antiviral activity”.
In the case of `O=C1C(O)=C(C(NCc2ccccc2)c2ccccc2O)C(=O)c2ccccc21` (stereo not drawn) [Compound 2g], the “HIV-1 RNase H inhibitory activity (in words)” value [1] is reported as “inactive” and the IC50 [1, 5] is reported as greater than 100 µM.
For `O=C1C(O)=C(C(NCc2ccccc2)c2cccc(Br)n2)C(=O)c2ccccc21` (stereo not drawn) [Compound 1j, 3-[(Benzylamino)(6-bromo-2-pyridyl)methyl]-2-hydroxy-1,4-naphthoquinone], the IC50 [1, 5] was greater than 100 µM.
For `O=C1C(O)=C(C(NCc2ccccc2)c2ccccn2)C(=O)c2ccccc21` (stereo not drawn) [Compound 1e], the “SI, selectivity index CC50/EC50” value (SARS-CoV-2) was 3.15, the EC50 (SARS-CoV-2; [6]) was 11.2 ± 2.1 µM and the “Inhibitory activity against SARS-CoV-2 replication (in words)” value (SARS-CoV-2; VEROE6-EGFP cells) was “moderate inhibitory activity”. The IC50 [1, 7] was 2.8 to 3.1 µM and 3.1 µM and the CC50 (in vitro) was 35.3 ± 1.3 µM.
For `CCCCCCCCCCCCCCNC(C1=C(O)C(=O)c2ccccc2C1=O)c1ccccn1` (stereo not drawn) [Compound 1c], the IC50 [1, 5] was 4 to 4.4 µM and 4 µM.
In the case of `O=C1C(O)=C(C(Nc2ccccn2)c2ccccc2O)C(=O)c2ccccc21` (stereo not drawn) [Compound 2h], the “HIV-1 RNase H inhibitory activity (in words)” value [1] is reported as “moderate activity” and the IC50 [1, 5] is reported as 20.8 ± 0.2 µM.
For `CCCCCCCNC(C1=C(O)C(=O)c2ccccc2C1=O)c1ccccn1` (stereo not drawn) [Compound 1a], the IC50 [1, 5] was 31.2 ± 6.5 µM.
Molecule `CCCCCCCCCCCCNC(C1=C(O)C(=O)c2ccccc2C1=O)c1cccc(Br)n1` (stereo not drawn) [Compound 1g, 3-[(Dodecylamino)(6-bromo-2-pyridyl)methyl]-2-hydroxy-1,4-naphthoquinone] has an IC50 [1, 5] greater than 100 µM.
With `CCCCCCCCCCCCNC(C1=C(O)C(=O)c2ccccc2C1=O)c1ccccc1O` (stereo not drawn) [Compound 2d] the “Cytotoxicity (in words)” value (HelaP4 cells) was “displayed cytotoxicity” and the IC50 [1, 7] was 17.6 ± 3.8 µM.
`CCCCCCCCCCCCCCNC(C1=C(O)C(=O)c2ccccc2C1=O)c1cc(Cl)cc(Cl)c1O` (stereo not drawn) [Compound 2j, 3-[(Tetradecylamino)(3,5-dichloro-2-hydroxyphenyl)methyl]-2-hydroxy-1,4-naphthoquinone] showed an IC50 [1, 5] of 43.7 ± 3.5 µM.
Molecule `O=C1C(O)=C(C(NCc2ccc(F)c(F)c2)c2ccccn2)C(=O)c2ccccc21` (stereo not drawn) [Compound 1f] has an IC50 [1, 5] of 17.4 ± 4.1 µM.
For `CCCCCCCCCCCCCCNC(C1=C(O)C(=O)c2ccccc2C1=O)c1ccccc1F` (stereo not drawn) [Compound 2b, 3-[(Tetradecylamino)(2-fluorophenyl)methyl]-2-hydroxy-1,4-naphthoquinone], the “Antiviral effect, reduction” value (HIV-1 [2]) was “no or weak antiviral effects”, the IC50 [1, 5] was 15 ± 5.1 µM and the “Reduction of HIV-1 infectivity” value (HIV-1 [3]) was 75%.
In the case of `CCCCCCCCCCCCCCNC(C1=C(O)C(=O)c2ccccc2C1=O)c1ccccc1Cl` (stereo not drawn) [Compound 2c, 3-[(Tetradecylamino)(2-chlorophenyl)methyl]-2-hydroxy-1,4-naphthoquinone], the “Antiviral effect, reduction” value (HIV-1 [2]) is reported as “no or weak antiviral effects”, the IC50 [1, 5] is reported as 7.3 ± 4.7 µM and the “Reduction of HIV-1 infectivity” value (HIV-1 [3]) is reported as 46%.
Molecule `CCCCCCCCCCCCCCCCNC(C1=C(O)C(=O)c2ccccc2C1=O)c1ccccn1` (stereo not drawn) [Compound 1d] has an IC50 [1, 5] of 10.7 ± 4.1 µM.
Work on `CCCCCCCCCCCCCCNC(C1=C(O)C(=O)c2ccccc2C1=O)c1cc(Br)cc(Br)c1O` (stereo not drawn) [Compound 2n, 3-[(Tetradecylamino)(3,5-dibromo-2-hydroxyphenyl)methyl]-2-hydroxy-1,4-naphthoquinone] yielded an IC50 [1, 5] of 105 ± 10.6 µM.
In the case of `CCCCCCCCCCCCCCCCNC(C1=C(O)C(=O)c2ccccc2C1=O)c1ccccc1O` (stereo not drawn) [Compound 2f], the “Cytotoxicity (in words)” value (HelaP4 cells) is reported as “displayed cytotoxicity” and the IC50 [1, 7] is reported as 7 ± 0.9 µM.
With `O=C1C(O)=C(C(NCc2ccccc2)c2cc(Cl)cc(Cl)c2O)C(=O)c2ccccc21` (stereo not drawn) [Compound 2l, 3-[(Benzylamino)(3,5-dichloro-2-hydroxyphenyl)methyl]-2-hydroxy-1,4-naphthoquinone] the “Antiviral effect, reduction” value (HIV-1 [2]) was “no or weak antiviral effects”, the “HIV-1 RNase H inhibitory activity (in words)” value [1] was “moderate activities” and the IC50 [1, 5] was 12.7 ± 3.4 µM. The “Reduction of HIV-1 infectivity” value (HIV-1 [3]) was 48%.
With `CCCCCCCCCCCCCCNC(C1=C(O)C(=O)c2ccccc2C1=O)c1ccccc1` (stereo not drawn) [Compound 2a] the IC50 [1, 5] was 21.5 ± 0.9 µM.
In the case of `O=C1C=C(O)C(=O)c2ccccc21` [Lawsone, 2-Hydroxy-1,4-naphthoquinone], the “IC50, HIV-1 RT-associated RNase H activity” value [4] is given as greater than 100 µM.
For `CCCCCCCCCCCCCCCCNC(C1=C(O)C(=O)c2ccccc2C1=O)c1cc(Br)cc(Br)c1O` (stereo not drawn) [Compound 2o], the IC50 [1, 5] was 32.5 ± 10.5 µM.
In the case of `CCCCCCCCCCCCCCNC(C1=C(O)C(=O)c2ccccc2C1=O)c1cccc(Br)n1` (stereo not drawn) [Compound 1h, 3-[(Tetradecylamino)(6-bromo-2-pyridyl)methyl]-2-hydroxy-1,4-naphthoquinone], the IC50 [1, 5] is reported as greater than 100 µM.
In the case of `CCCCCCCCCCCCNC(C1=C(O)C(=O)c2ccccc2C1=O)c1ccccn1` (stereo not drawn) [Compound 1b], the IC50 [1, 5] is reported as 4 to 4.4 µM and 4.4 µM.
In the case of `CC(C)C[C@H](NC(=O)OCc1ccccc1)C(=O)N[C@@H](CC1CCNC1=O)C(O)S(=O)(=O)O` (stereo partly drawn) [GC-376, reference compound], the EC50 (SARS-CoV-2) is reported as 0.84 ± 0.08 µM and the CC50 (VEROE6-EGFP cells) is reported as greater than 100 µM.
For `CCCCCCCCCCCCCCCCNC(C1=C(O)C(=O)c2ccccc2C1=O)c1cc(Cl)cc(Cl)c1O` (stereo not drawn) [Compound 2k], the EC50 (SARS-CoV-2; [6]) was greater than 41.2 µM, the “Inhibitory activity against SARS-CoV-2 replication (in words)” value (SARS-CoV-2; VEROE6-EGFP cells) was “inactive” and the “Reduction of percentage of GFP-positive cells” value (HIV-1 [2]) was “half”. The “Reduction of viral DNA levels” value (HIV-1 viral DNA) was “over 50%”, the IC50 [1, 7] was 2.8 to 3.1 µM and 2.8 µM and the CC50 (in vitro) was 41.2 ± 1.3 µM. For the same molecule, the “Toxicity (in words)” value (MT4 cells) was “without exhibiting any toxicity”.
In the case of `O=C1C(O)=C(C(NCc2ccccc2)c2cc(Br)cc(Br)c2O)C(=O)c2ccccc21` (stereo not drawn) [Compound 2p, 3-[(Benzylamino)(3,5-dibromo-2-hydroxyphenyl)methyl]-2-hydroxy-1,4-naphthoquinone], the “Antiviral effect, reduction” value (HIV-1 [2]) is reported as “no or weak antiviral effects”, the “HIV-1 RNase H inhibitory activity (in words)” value [1] is reported as “moderate activities” and the IC50 [1, 5] is reported as 19.6 ± 3.4 µM. For the same molecule, the “Reduction of HIV-1 infectivity” value (HIV-1 [3]) was 70%.
